Measured values reported in US11051515B2, “3-acyl-benzamides and their use as herbicides” (Bayer Aktiengesellschaft, priority 2017, dated 2021).

Key:
ALOMY [1] = test: Pre-emergence action against ALOMY; type: in vivo, Alopecurus myosuroides; settings: dosage 320 g/ha; pre-emergence; scored visually after 3 weeks vs untreated controls; 100% = plants have died, 0% = like control plants
In short: (§1)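 Seeds sown in sandy loam in wood-fiber pots and covered with soil. Greenhouse growth; visual damage scored after 3 weeks versus untreated controls (100% = dead, 0% = like control).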

AVEFA [2] = test: Pre-emergence action against AVEFA; type: in vivo, Avena fatua; settings: dosage 320 g/ha, scored visually after 3 weeks vs untreated controls
In short: as §1

ECHCG [3] = test: Pre-emergence action against ECHCG; type: in vivo, Echinochloa crus-galli; settings: pre-emergence, dosage 320 g/ha, scored visually after 3 weeks vs untreated controls
In short: as §1

LOLRI [4] = test: Pre-emergence action against LOLRI; type: in vivo, Lolium rigidum; settings: dosage 320 g/ha, scored visually after 3 weeks vs untreated controls
In short: as §1

SETVI [5] = test: Pre-emergence action against SETVI; type: in vivo, Setaria viridis; settings: pre-emergence, dosage 320 g/ha, scored visually after 3 weeks vs untreated controls
In short: as §1

ABUTH [6] = test: Pre-emergence action against ABUTH; type: in vivo, Abutilon theophrasti; settings: pre-emergence, dosage 320 g/ha, scored visually after 3 weeks vs untreated controls
In short: as §1

AMARE [7] = test: Pre-emergence action against AMARE; type: in vivo, Amaranthus retroflexus; settings: pre-emergence, dosage 320 g/ha, scored visually after 3 weeks vs untreated controls
In short: as §1

MATIN [8] = test: Pre-emergence action against MATIN; type: in vivo, Matricaria inodora; settings: Dosage 320 g/ha, pre-emergence
In short: as §1

PHBPU [9] = test: Pre-emergence action against PHBPU; type: in vivo, Pharbitis purpurea; settings: Dosage 320 g/ha, pre-emergence
In short: as §1

POLCO [10] = test: Pre-emergence action against POLCO; type: in vivo, Polygonum convolvulus; settings: Dosage 320 g/ha, pre-emergence
In short: as §1

STEME [11] = test: Pre-emergence action against STEME; type: in vivo, Stellaria media; settings: Dosage 320 g/ha, pre-emergence
In short: as §1

VIOTR [12] = test: Pre-emergence action against VIOTR; type: in vivo, Viola tricolor; settings: Dosage 320 g/ha, pre-emergence
In short: as §1

VERPE [13] = test: Pre-emergence action against VERPE; type: in vivo, Veronica persica; settings: Dosage 320 g/ha, pre-emergence
In short: as §1

HORMU [14] = test: Pre-emergence action against HORMU; type: in vivo, Hordeum murinum; settings: Dosage 320 g/ha
In short: as §1

ALOMY [15] = test: Post-emergence action against ALOMY; type: in vivo, Alopecurus myosuroides; settings: Dosage 80 g/ha, post-emergence
In short: (§2)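 Post-emergence foliar spray on greenhouse plants at the one-leaf stage, using wettable-powder or emulsion-concentrate formulations in water (600 to […], plus 0.2% wetting agent). Damage scored by eye roughly 3 weeks later against untreated plants: 0% = like control, 100% = dead.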

AVEFA [16] = test: Post-emergence action against AVEFA; type: in vivo, Avena fatua; settings: post-emergence, dosage 80 g/ha, visual assessment about 3 weeks after treatment vs untreated controls
In short: as §2

CYPES [17] = test: Post-emergence action against CYPES; type: in vivo, Cyperus esculentus; settings: post-emergence, dosage 80 g/ha, visual assessment about 3 weeks after treatment vs untreated controls
In short: as §2

ECHCG [18] = test: Post-emergence action against ECHCG; type: in vivo, Echinochloa crus-galli; settings: post-emergence, dosage 80 g/ha, visual assessment about 3 weeks after treatment vs untreated controls
In short: as §2

LOLRI [19] = test: Post-emergence action against LOLRI; type: in vivo, Lolium rigidum; settings: dosage 80 g/ha, visual assessment about 3 weeks after treatment vs untreated controls
In short: as §2

SETVI [20] = test: Post-emergence action against SETVI; type: in vivo, Setaria viridis; settings: post-emergence, dosage 80 g/ha, visual assessment about 3 weeks after treatment vs untreated controls
In short: as §2

ABUTH [21] = test: Post-emergence action against ABUTH; type: in vivo, Abutilon theophrasti; settings: post-emergence, dosage 80 g/ha, visual assessment about 3 weeks after treatment vs untreated controls
In short: as §2

AMARE [22] = test: Post-emergence action against AMARE; type: in vivo, Amaranthus retroflexus; settings: post-emergence, dosage 80 g/ha, visual assessment about 3 weeks after treatment vs untreated controls
In short: as §2

MATIN [23] = test: Post-emergence action against MATIN; type: in vivo, Matricaria inodora; settings: post-emergence, dosage 80 g/ha, visual assessment about 3 weeks after treatment vs untreated controls
In short: as §2

PHBPU [24] = test: Post-emergence action against PHBPU; type: in vivo, Pharbitis purpurea; settings: post-emergence, dosage 80 g/ha
In short: as §2

POLCO [25] = test: Post-emergence action against POLCO; type: in vivo, Polygonum convolvulus; settings: post-emergence, dosage 80 g/ha
In short: as §2

STEME [26] = test: Post-emergence action against STEME; type: in vivo, Stellaria media; settings: post-emergence, dosage 80 g/ha
In short: as §2

VIOTR [27] = test: Post-emergence action against VIOTR; type: in vivo, Viola tricolor; settings: post-emergence, dosage 80 g/ha
In short: as §2

VERPE [28] = test: Post-emergence action against VERPE; type: in vivo, Veronica persica; settings: dosage 80 g/ha
In short: as §2

HORMU [29] = test: Post-emergence action against HORMU; type: in vivo, Hordeum murinum; settings: dosage 80 g/ha
Method: Seeds of monocotyledonous and dicotyledonous weed and crop plants are laid out in sandy loam soil in wood-fiber pots, covered with soil and cultivated in a greenhouse under good growth conditions. 2 to 3 weeks after sowing, the test plants are treated at the one-leaf stage. The compounds of the invention, formulated in the form of wettable powders (WP) or as emulsion concentrates (EC), are then sprayed onto the green parts of the plants in the form of an aqueous suspension or emulsion at a water application rate equating to […], with addition of 0.2% wetting agent. After the test plants have been left to stand in the greenhouse under optimal growth conditions for about 3 weeks, the action of the preparations is assessed visually in comparison to untreated controls (herbicidal action in percent (%): 100% activity=the plants have died, 0% activity=like control plants). […] At the same time, inventive compounds leave Gramineae crops such as barley, wheat, rye, millet/Sorghum, corn or rice virtually undamaged when applied post-emergence, even at high active ingredient dosages. In addition, some substances are also harmless to dicotyledonous crops such as soya, cotton, oilseed rape, sugar beet or potatoes. Some of the compounds according to the invention have high selectivity and are therefore suitable for controlling unwanted vegetation in agricultural crops by the post-emergence method. The data of Tables B18 to B34 below illustrate, in an exemplary manner, the […] herbicidal action of the compounds according to the invention, the herbicidal activity being stated in percent.

CYPES [30] = test: Pre-emergence action against CYPES; type: in vivo, Cyperus esculentus; settings: pre-emergence, dosage 320 g/ha, scored visually after 3 weeks vs untreated controls
In short: as §1

DIGSA [31] = test: Pre-emergence action against DIGSA; type: in vivo, Digitaria sanguinalis; settings: dosage 320 g/ha, scored visually after 3 weeks vs untreated controls
In short: as §1

DIGSA [32] = test: Post-emergence action against DIGSA; type: in vivo, Digitaria sanguinalis; settings: dosage 80 g/ha, visual assessment about 3 weeks after treatment vs untreated controls
In short: as §2

CCn1nnnc1NC(=O)c1ccc(C(F)F)c(C(=O)C2CC2)c1SC [2-67]
80%: Post-emergence action against CYPES (herbicidal action in percent) (CYPES [17]) | Post-emergence action against LOLRI (herbicidal action in percent) (LOLRI [19])
90%: Pre-emergence action against PHBPU (PHBPU [9]) | Pre-emergence action against POLCO (POLCO [10])
80: Post-emergence action against HORMU (HORMU [29])
100%: Pre-emergence action against ALOMY (herbicidal activity in percent) (ALOMY [1]) | Pre-emergence action against AVEFA (herbicidal activity) (AVEFA [2]) | Pre-emergence action against ECHCG (herbicidal activity) (ECHCG [3]) | Pre-emergence action against LOLRI (herbicidal activity) (LOLRI [4]) | SETVI (Table B8, pre-emergence herbicidal activity) (SETVI [5]) | Pre-emergence action against ABUTH (herbicidal activity) (ABUTH [6]) | Pre-emergence action against AMARE (herbicidal activity) (AMARE [7]) | Pre-emergence action against MATIN (MATIN [8]) | Pre-emergence action against STEME (STEME [11]) | Pre-emergence action against VIOTR (VIOTR [12]) | Pre-emergence action against VERPE (VERPE [13]) | Pre-emergence action against HORMU (HORMU [14]) | Post-emergence action against ALOMY (ALOMY [15]) | Post-emergence action against AVEFA (herbicidal action in percent) (AVEFA [16]) | Post-emergence action against ECHCG (herbicidal action in percent) (ECHCG [18]) | Post-emergence action against SETVI (herbicidal action in percent) (SETVI [20]) | Post-emergence action against ABUTH (herbicidal action in percent) (ABUTH [21]) | Post-emergence action against AMARE (herbicidal action in percent) (AMARE [22]) | Post-emergence action against MATIN (herbicidal action in percent) (MATIN [23])
100: Post-emergence action against PHBPU (PHBPU [24]) | Post-emergence action against POLCO (POLCO [25]) | Post-emergence action against STEME (STEME [26]) | Post-emergence action against VIOTR (VIOTR [27])
90: Post-emergence action against VERPE (VERPE [28])

CCn1nnnc1NC(=O)c1ccc(C(F)(F)F)c(C(=O)C2CC2)c1SC [2-60]
90: Post-emergence action against POLCO (POLCO [25])
100%: Pre-emergence action against ALOMY (herbicidal activity in percent) (ALOMY [1]) | Pre-emergence action against AVEFA (herbicidal activity) (AVEFA [2]) | Pre-emergence action against CYPES (herbicidal activity) (CYPES [30]) | Pre-emergence action against ECHCG (herbicidal activity) (ECHCG [3]) | Pre-emergence action against LOLRI (herbicidal activity) (LOLRI [4]) | SETVI (Table B8, pre-emergence herbicidal activity) (SETVI [5]) | Pre-emergence action against ABUTH (herbicidal activity) (ABUTH [6]) | Pre-emergence action against AMARE (herbicidal activity) (AMARE [7]) | Pre-emergence action against MATIN (MATIN [8]) | Pre-emergence action against PHBPU (PHBPU [9]) | Pre-emergence action against POLCO (POLCO [10]) | Pre-emergence action against STEME (STEME [11]) | Pre-emergence action against VIOTR (VIOTR [12]) | Pre-emergence action against VERPE (VERPE [13]) | Pre-emergence action against HORMU (HORMU [14]) | Post-emergence action against ALOMY (ALOMY [15]) | Post-emergence action against ECHCG (herbicidal action in percent) (ECHCG [18]) | Post-emergence action against SETVI (herbicidal action in percent) (SETVI [20]) | Post-emergence action against ABUTH (herbicidal action in percent) (ABUTH [21]) | Post-emergence action against AMARE (herbicidal action in percent) (AMARE [22])
90%: Post-emergence action against CYPES (herbicidal action in percent) (CYPES [17]) | Post-emergence action against LOLRI (herbicidal action in percent) (LOLRI [19]) | Post-emergence action against MATIN (herbicidal action in percent) (MATIN [23])
80%: Post-emergence action against AVEFA (herbicidal action in percent) (AVEFA [16])
100: Post-emergence action against PHBPU (PHBPU [24]) | Post-emergence action against STEME (STEME [26]) | Post-emergence action against VIOTR (VIOTR [27]) | Post-emergence action against VERPE (VERPE [28]) | Post-emergence action against HORMU (HORMU [29])

CCn1nnnc1NC(=O)c1ccc(C(F)(F)F)c(C(=O)C2CC2)c1C1CC1 [2-233]
90%: Pre-emergence action against LOLRI (herbicidal activity) (LOLRI [4]) | Pre-emergence action against POLCO (POLCO [10]) | Pre-emergence action against HORMU (HORMU [14]) | Post-emergence action against ALOMY (ALOMY [15]) | Post-emergence action against AVEFA (herbicidal action in percent) (AVEFA [16]) | Post-emergence action against DIGSA (herbicidal action in percent) (DIGSA [32]) | Post-emergence action against ECHCG (herbicidal action in percent) (ECHCG [18]) | Post-emergence action against SETVI (herbicidal action in percent) (SETVI [20]) | Post-emergence action against MATIN (herbicidal action in percent) (MATIN [23])
80: Post-emergence action against POLCO (POLCO [25])
100: Post-emergence action against VERPE (VERPE [28])
100%: Pre-emergence action against ALOMY (herbicidal activity in percent) (ALOMY [1]) | Pre-emergence action against AVEFA (herbicidal activity) (AVEFA [2]) | Pre-emergence action against DIGSA (herbicidal activity) (DIGSA [31]) | Pre-emergence action against ECHCG (herbicidal activity) (ECHCG [3]) | SETVI (Table B8, pre-emergence herbicidal activity) (SETVI [5]) | Pre-emergence action against ABUTH (herbicidal activity) (ABUTH [6]) | Pre-emergence action against AMARE (herbicidal activity) (AMARE [7]) | Pre-emergence action against MATIN (MATIN [8]) | Pre-emergence action against PHBPU (PHBPU [9]) | Pre-emergence action against STEME (STEME [11]) | Pre-emergence action against VIOTR (VIOTR [12]) | Pre-emergence action against VERPE (VERPE [13]) | Post-emergence action against ABUTH (herbicidal action in percent) (ABUTH [21]) | Post-emergence action against AMARE (herbicidal action in percent) (AMARE [22])
90: Post-emergence action against PHBPU (PHBPU [24]) | Post-emergence action against STEME (STEME [26]) | Post-emergence action against VIOTR (VIOTR [27]) | Post-emergence action against HORMU (HORMU [29])
